Results: patent US20100331363A1, “TREATMENT OF MITOCHONDRIAL DISORDERS USING A FARNESYL TRANSFERASE INHIBITOR” (Link Medicine Corporation, priority 2008, published 2010)
“Also recorded” adds a separate entry of the source.

Assays:
[1] = tested on: TAU; test: TAU441 transgenic mice, TAU immunoreactivity (AT180, HT7) in amygdala; assay type: in vivo, mouse; conditions: 0.09 mg/kg once every 24 hours, three months, vs vehicle
Method: Animals and treatments: Male and female human WT alpha-synuclein over-expressing transgenic mice^32 at 6 months of age were given vehicle (10% beta-cyclodextrin) or LNK-754-TS (0.09, 0.9 and 9 mg/kg) per oral gavage twice daily for 3 months or animals at 7 months of age were given vehicle (2.5% beta-cyclodextrin) or LNK-754-TS (2 mg/kg) once every three days for 3 months. […]
Immunohistochemistry and quantification of stained cells: For evaluation of α-synuclein immunoreactivity (IR), 5 sagittal cryo-cut sections (10 μm slice thickness) from five different layers were used for counting of IR cells in the cortex and hippocampus. […] IR positive cells were quantified using specialized image analysis software (Image Pro Plus, version 4.5.1.29). […] Images were evaluated with ImageProPlus (version 6.2) image analysis software. […] Primary antibodies were detected by the ABC method.
This study was designed to evaluate the effects of a treatment with LNK-754-TS dosed at 0.09 mg per kg on behavior, TAU and TAU-pT231 levels, and brain morphology of TAU441 Tg mice. Histological evaluations were performed to quantitatively evaluate TAU pathology. TAU depositions were determined using the monoclonal TAU-antibodies AT180 and HT7. […] Afterwards images were evaluated with ImageProPlus (version 6.2) image analysis software (FIG. 10A).

[2] = tested on: LC3 mRNA; test: LC3 mRNA (qPCR) in SH-SY5Y cells; assay type: cell-based, human
Method: Cell culture and immunocytochemistry: SH-SY5Y cells were grown in DMEM medium supplemented with 10% FBS and 1% pen/strep at 37° C. and 5% CO2. Cells were differentiated with 10 μM retinoic acid for 48 hr, then treated with the either rapamycin (100 nM or 1 μM) or with 100 nM of either LNK-754-TS or Tipifarnib for 48-72 hr. Cells were then fixed with 4% paraformaldehyde and stained for LC3 (Novus biological, NB100-2331, dilution 1:800) followed by secondary Alexa-564 anti-Rabbit (A-11011).
Quantitative real-time PCR: Gene expression profiles were done by qPCR on series of known autophagy genes. RNA was extracted with Tri-reagent (Sigma), and cDNAs generated using iScript (Biorad). qPCR analysis was carried out in a 96 well plate using an iCycler (BioRad, Hercules, Calif.), and iQ SYBR Green Supermix (Biorad) according to the manufacturer's specifications.
Such increases in LC3 mRNA levels are associated in the literature with stimulation of macroautophagy. This supports the hypothesis that at doses as low as 1 nM in this in vitro system there is stimulation of autophagy in these cells.
Autophagy was measured in a neuroblastoma cell culture system by three distinct approaches: quantitation of autophagy-related mRNA's, immunofluorescence microscopy of autophagosomes, and biochemical detection of the microtubule-associated protein 1 light chain 3 (LC3) a key protein that is required for autophagosome formation. Differentiated human neuroblastoma cells (SH-SY5Y) were treated for 72 hr with LNK-754-TS (0.01-100 nM), Zarnestra® (also referred to herein as tipifarnib) (100 nM) or rapamycin (1 μM).

## C#Cc1cccc(-c2cc(=O)n(C)c3ccc([C@](O)(c4ccc(Cl)cc4)c4cncn4C)cc23)c1 [LNK-754-TS, (R)-6-[(4-chlorophenyl)-hydroxyl-(1-methyl-1-H-imidazol-5-yl)-methyl]-4-(3-ethynylphenyl)-1-methyl-2-(1H)-quinonlinone (2S, 3S)-dihydroxybutanedioate]
[1]
  phosphorylated Tau (AT180) immunoreactivity in amygdala: significantly decreased; also recorded: significant reduction; also recorded: significantly reduced
  total TAU (HT7) immunoreactivity: not significantly reduced; also recorded: did not change
[2]; 0.01-100 nM, 72 hr, differentiated SH-SY5Y (FIG. 8a)
  LC3 transcript: upregulated; also recorded: increased
[2]; between 1 and 100 nM, SH-SY5Y, 72 hours (FIG. 4)
  levels of mRNA of LC3: significant increases
